Assay results reported in US20240366577A1, “CONTROLLED LONG-TERM DRUG DELIVERY AND METHODS THEREOF” (THE JOHNS HOPKINS UNIVERSITY, priority 2021, published 2024).
Like-named read-outs stand apart in the source and are kept apart here.

Experiments:
[1] = in vitro release under accelerated release conditions; format: physicochemical; settings: 37° C., PBS+0.3% SDS, 2.9 mg drug, 12-day time course; amorphous vs 50 μm vs 150-200 μm crystals
Excerpt: After crystals visibly stopped precipitating or growing, the vessel was submerged in an ultrasonic water bath for 10-30 seconds to dislodge crystals from the vessel sidewall and break them into more a uniform size distributions, either smaller fines, for example 50 μm, or between 150-200 μm, as measured by brightfield and scanning electron microscopy, shown in FIGS. 2A-2B. Resultant product was then removed from the supernatant mother solution, dried, weighed, and stored for later use. On average, yielded crystal was approximately 40% of the starting powder. Furthermore, methods exist to quantify solubilized material, typically using optics to identify changes in light transmittance, and enabled testing of crystal stability in a range of aqueous solutions. […] To simulate cumulative drug release over time, all 3 mL supernatant volumes were removed and replaced with completely fresh release media at desired times of 1 hr, 4 hr, 6 hr, 8 hr, 10 hr, 1 day, 2 days, 5 days, 7 days, 10 days and 12 days, and 200 μL aliquots were measured in individual wells of a 96-well plate at 266 nm to determine solubilize sorafenib release, as shown in FIG. 2D.
Release studies were carried out under accelerated conditions in PBS with 0.3% w/v SDS in 1X PBS. […] Drug concentration in samples was measured using a UV-calibrated Tecan infinite M200 PRO. […]

[2] = SD rats; cited from earlier work
[3] = system: 4T1; settings: 20-60 mg/kg dosing; cited from earlier work
[4] = system: alpha Smooth Muscle actin (aSMact); test: immunofluorescent staining of tumors: aSMact; format: in vivo, BALB/c mice; settings: daily bolus IP 25 mg/kg/day
Description: (§1) To confirm the effects seen at the level of RNA, immunofluorescent staining of excised tumor samples that were in parallel fixed with paraformaldehyde and embedded in paraffin was performed. […] Co-localization of CD31 with aSMact was, as expected, not linked in crystal sorafenib-treated tumors, where CD31 reduction was more extensive than with daily, bolus sorafenib.
(§2) Immunofluorescence imaging was used to determine anti-angiogenic drug efficacy. Tumor tissues were retrieved from mice and fixed overnight using 4% paraformaldehyde at 4° C. After fixation, retrieved tissue samples were moved to 70% ethanol. Samples were then processed for paraffin embedding, sectioning and staining. […] Next, tissues were incubated for 1 hour in an immunostaining cocktail solution consisting of NucBlue (Thermo), specific marker probes (1:200 dilution) anti-CD31 (Cat#DIA-310, HistoBioTec) and anti-alphaSmoothMuscle actin-Cy3 (Sigma) in Dako staining buffer. For CD31, a goat anti-rat alexa-fluor647 secondary antibody was also used (1:400). After staining, samples were rinsed again with 1X PBS three times prior to slides being cover slipped with Pro-long anti-fade Gold (Thermo). […] For stain quantification, images were converted into 8-bit image files, a background threshold was determined using NIH ImageJ, and then all images were processed using an NIH ImageJ macro to quantify the area of positive stain. […]

[5] = system: MDA-MB-231; settings: 30 mg/kg bodyweight daily oral, cited from earlier work
[6] = system: 4T1 tumors; test: orthotopic parent 4T1 TNBC tumor growth; format: in vivo, BALB/c mice; settings: daily IP bolus 25 mg/kg BW/day, dissolved in ~60% DMSO
Description: Namely, 4T1 tumors were treated with either PBS (PBS CONTROL), intraperitoneal (IP) bolus sorafenib (25 mg/kg BW/day) (IP BOLUS), 3 mg IP injected sorafenib crystals (IP CRYSTAL 3 MG), or sorafenib crystals (3 mg: SC CRYSTAL (3 MG); 10 mg: SC CRYSTAL (10 MG)) injected around developed tumors in the subcutaneous (SC) mammary fatpad. Furthermore, to truly test the utility of crystalline sorafenib in treating such an aggressive TNBC model, treatment was carried out retrospectively and only started once tumor volumes reached ˜225-250 mm^3. A positive control liquid-dissolved and daily injected drug treatment group was included, where mice were dosed with a daily bolus of 25 mg sorafenib/kg of mouse BW. […] This may be supported by our prior observation that in the IP compartment, where there is higher 10 liquid turnover as compared to the SC space, crystalline drugs usually have a faster kinetic of release over time.
4T1 or 4T1-luc2 cells were trypsinized using 0.25% Trypsin-EDTA, then diluted with the appropriate complete culture media and spun in a centrifuge at 300 g for 5 min. The supernatant was aspirated, and the pellet was re-suspended in serum-free RPMI 1640. The solution was centrifuged again, and the supernatant aspirated. Re-suspension, centrifugation, and aspiration was repeated once more. 5 mL of RPMI-1640 was then added to the pellet. 10 μL of the cell suspension was removed and mixed with 10 μL of Trypan blue stain 0.4% (ThermoFisher). Cells were counted with a Countess automated cell counter. Cell solutions were centrifuged one more time, the supernatant aspirated, and the pellet resuspended in the amount of RPMI-1640 required to achieve a concentration of 5×10^5 cells/200 μL of media. Tumor cells were then administered orthotopically in naive (and anesthetized) BALB/c mice into the right inguinal mammary fat pad 21 with 200 μL aliquots of the cell suspension, using an insulin syringe. Tumors were measured externally using a digital caliper, and volume was calculated (!″* (length * height) *−length * height). Except in the 4T1-luc2 trial, treatment began once tumors reached an average volume of 220-250 mm3. Experimental end point was deemed when solid tumors reached a volume of no more than 2000 mm3. Tumors were extracted and harvested, half stored in 4% paraformaldehyde diluted from 32% (Cat#50980495, Electron Microscopy Services) with DI H2O, and half frozen in liquid nitrogen, then stored at −80° C.
Once tumors had reached an average volume of ˜220-250 mm^3, mice were administered either subcutaneously or intraperitoneally with 3 or 10 mg of crystalline sorafenib, diameter ˜150-200 μm, suspended in 200 μL of sterile saline using an 18 g needle. […]

[7] = system: caspase-3/7; test: Caspase-Glo 3/7 of tumor lysates; format: in vivo, BALB/c mice; settings: daily bolus regimen; tumors at end of study
Description: as §1
Caspase activity was determined using the Caspase-Glo 3/7 assay kit and the manufacturer's protocol, with the following modifications. Protein samples (prepared by sonication probe in NP40 lysis buffer (Cat#FNN0021, Thermo)+Halt protease inhibitor cocktail (Cat#78425, Thermo)) were prepared in a 96-well plate following BCA assay (Cat#23225, Pierce/Thermo) protein quantification ([…] in 50 μl) were incubated with 50 μl of reconstituted caspase 3/7 substrate. After a brief shaking, the plate was incubated at room temperature for 1 hr and luciferase activity was determined using a BioTek Synergy 2 plate reader (Biotek; Winooski, VT).

[8] = system: tumor endothelial CD31; test: immunofluorescent staining of tumors: CD31; format: in vivo, BALB/c mice; settings: daily bolus IP 25 mg/kg/day
Description: as §1, §2

[9] = body weight of treated tumor-bearing mice; format: in vivo, BALB/c mice; settings: daily 25 mg/kg bolus in ~60% DMSO solvent solution
Description: However, due to the highly hydrophobic nature of sorafenib, its daily 25 mg/kg bolus dosing regimen required regular used of a solvent solution made up of ˜60% of the strong organic solvent dimethylsulfoxide (DMSO). […] In stark contrast, no DMSO was required for delivery of sorafenib crystals, for which instead simply utilized ˜100-200 μl of saline to inject into the desired IP or SC tissue sites.
Once tumors had reached an average volume of ˜220-250 mm^3, mice were administered either subcutaneously or intraperitoneally with 3 or 10 mg of crystalline sorafenib, diameter ˜150-200 μm, suspended in 200 μL of sterile saline using an 18 g needle. As a control, mice (n=4) were dosed with sorafenib dissolved at a concentration of 4 mg/mL in a solution of 65% DMSO (remainder DPBS). Mice were dosed either subcutaneously or intraperitoneally with a bolus of 25 mg drug per kg of bodyweight (BW), daily. As a secondary control, mice were dosed with the 65% DMSO/PBS vehicle to monitor changes in body score based on the vehicle alone.

[10] = system: macrophage Cd68 and myeloid Cd11b; test: qPCR of retrieved tumors: immune markers; format: in vivo, BALB/c mice; settings: daily IP bolus 25 mg/kg BW/day
[11] = system: foreign body and immune rejection responses to implanted biomedical devices; settings: non-human primates; cited from earlier work
[12] = system: foreign body and immune rejection responses to implanted biomedical devices; settings: rodents; cited from earlier work

CNC(=O)c1cc(Oc2ccc(NC(=O)Nc3ccc(Cl)c(C(F)(F)F)c3)cc2)ccn1 [amorphous (powder) sorafenib, sorafenib]
release of solubilized sorafenib (cumulative) [1]: fastest release

CO[C@H]1C[C@@H]2CC[C@@H](C)[C@@](O)(O2)C(=O)C(=O)N2CCCC[C@H]2C(=O)O[C@H]([C@H](C)C[C@@H]2CC[C@@H](O)[C@H](OC)C2)CC(=O)[C@H](C)/C=C(\C)[C@@H](O)[C@@H](OC)C(=O)[C@H](C)C[C@H](C)/C=C/C=C/C=C/1C [crystalline rapamycin, rapamycin]
inflammatory activity / biocompatibility [2]: no inflammatory activity

CNC(=O)c1cc(Oc2ccc(NC(=O)Nc3ccc(Cl)c(C(F)(F)F)c3)cc2)ccn1 [sorafenib]
effects on tumor growth [3]: negligible effects
recruitment/polarization of CD206+ F4/80+ M2 macrophages [3]: higher recruitment/polarization
tumor aSMact levels (immunofluorescence) [4]: significant reduction
tumor reduction ([5]; after 9 days): 42%
angiogenic inhibition [5]: significant angiogenic inhibition
tumor volumes [6]: slight dip in tumor volumes
apoptotic index (caspase-3/7 levels in tumor lysates) [7]: significantly increased
tumor endothelial CD31 levels (immunofluorescence) [8]: significant reduction
body weight loss [9]: 15-20%
Cd68 and Cd11b expression levels (qPCR) [10]: no significant changes

COc1ccc(COc2ccc(Cc3cnc(N)nc3N)cc2OC)cc1 [GW2580]
duration of suppression of foreign body and immune rejection responses [11]: ≥ 6 months
duration of suppression of foreign body and immune rejection responses [12]: over 1.3 years
